Test: recombinant barcode read abundance after kanamycin selection (control-corrected) (log10(CPM+1)); higher = more efficient recombination; sequences stand for … in AGTGCAGAGAAAATCGGCCAGTTTTCTCTGCCTGCAGTCCGCATGCCGT…AGATTTATGCAGCGGACTGCCTTTCTCCCAAAGTGATAAACCGGACAGTATCATGGACCGGTTTTCCCGGTAATCCGTATTTGCAAGGTTGGTTTCACT; site = the 11-nt target
In short: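 IS621 bridge RNA target-binding loops were paired with targets in a pooled library tested in E. coli. After co-electroporation with a donor plasmid, cells were plated in two replicates on chloramphenicol/ampicillin LB agar (control) and on chloramphenicol/ampicillin/kanamycin carrying 0.1 mM IPTG. Barcodes at recombinant junctions were counted as counts per million, averaged and control-corrected to give recombination efficiency. Values are log10(CPM+1).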
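Further: IS621 recombinase and bridge RNA in Escherichia coli cells.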

Row | Sequence | recombinant barcode read abundance (log10)
1 | GTGATGTCTTGGGTTCTAACCTGTTGCCT (site GCGATGTCTAG) | 0.321
2 | GTGATGTCTTGGGTTCTAACCTGTTGCCT (site GGGATGTCTAG) | 0.279
3 | GTGATGTCTTGGGTTCTAACCTGTTGCCT (site GTGATGTCTAG) | 2.17
4 | GTGCACTCTTGGGTTCTAACCTGTTGCGG (site GTGCACACTCC) | 0
5 | GTGCACTCTTGGGTTCTAACCTGTTGCGG (site GTGCACTCTCC) | 2.13
6 | GTGCTAACTTGGGTTCTAACCTGTTGCCA (site ATGCTAACTAG) | 0.0637
7 | GTGCTAACTTGGGTTCTAACCTGTTGCCA (site GTGCTAACTTG) | 0.626
8 | GTGGAAGCTTGGGTTCTAACCTGTTGCCA (site GTGAAAGCTTG) | 0.158
9 | GTGGAAGCTTGGGTTCTAACCTGTTGCCA (site GTGGAAGCTTG) | 0.238
10 | GTGGAGTCTTGGGTTCTAACCTGTTGCCT (site GTAGAGTCTAA) | 0.577
11 | GTGGAGTCTTGGGTTCTAACCTGTTGCCT (site GTGGAGTCTAG) | 2.5
12 | GTGGGAACTTGGGTTCTAACCTGTTGCTT (site GTGGGAACTAA) | 1.97
13 | GTGGGAACTTGGGTTCTAACCTGTTGCTT (site TCCTATCCTTC) | 0.0252
14 | GTGGTACCTTGGGTTCTAACCTGTTGCAT (site ACACGGACTTA) | 0.0235
15 | GTGGTACCTTGGGTTCTAACCTGTTGCAT (site GTGGTACCTAT) | 2.48
16 | GTGGTACCTTGGGTTCTAACCTGTTGCCT (site GTGGTAACTAG) | 0.885
17 | GTGGTACCTTGGGTTCTAACCTGTTGCCT (site GTGGTACCTAG) | 2.77
18 | GTGGTACCTTGGGTTCTAACCTGTTGCCT (site GTGGTAGCTAG) | 0.0565
19 | GTGGTACCTTGGGTTCTAACCTGTTGCCT (site GTGGTATCTAG) | 0.391
20 | GTGGTTCCTTGGGTTCTAACCTGTTGCCT (site GTGGTTCCTAG) | 1.61
21 | GTGGTTCCTTGGGTTCTAACCTGTTGCCT (site GTTGGTCCTAG) | 0.112
22 | GTGTACCCTTGGGTTCTAACCTGTTGCCT (site GAGTACCCTAG) | 0.64
23 | GTGTACCCTTGGGTTCTAACCTGTTGCCT (site GCGTACCCTAG) | 1.13
24 | GTGTACCCTTGGGTTCTAACCTGTTGCCT (site GGGTACCCTAG) | 0.068
25 | GTGTACCCTTGGGTTCTAACCTGTTGCCT (site GTGTACCCTAG) | 0.918
26 | GTGTACCCTTGGGTTCTAACCTGTTGCGC (site GTGTACCCTAC) | 0.587

Row | Sequence | recombinant barcode read abundance (log10)
27 | GTGTACCCTTGGGTTCTAACCTGTTGCGC (site GTGTACCCTCC) | 0.141
28 | GTGTACCCTTGGGTTCTAACCTGTTGCGC (site GTGTACCCTGC) | 3.13
29 | GTGTACCCTTGGGTTCTAACCTGTTGCGC (site GTGTACCCTTC) | 0.31
30 | GTGTACCCTTGGGTTCTAACCTGTTGCGT (site GTGTACCCTAC) | 3.59
31 | GTGTACCCTTGGGTTCTAACCTGTTGCGT (site GTGTACCCTCC) | 1.66
32 | GTGTACCCTTGGGTTCTAACCTGTTGCGT (site GTGTACCCTGC) | 2.29
33 | GTGTACCCTTGGGTTCTAACCTGTTGCGT (site GTGTACCCTTC) | 0.185
34 | GTGTATACTTGGGTTCTAACCTGTTGCAT (site GTGTATACTAT) | 0.589
35 | GTGTATACTTGGGTTCTAACCTGTTGCAT (site TAACTAGCTTA) | 0.0503
36 | GTGTATCCTTGGGTTCTAACCTGTTGCTT (site GTGCCTCCTAA) | 0.0308
37 | GTGTATCCTTGGGTTCTAACCTGTTGCTT (site GTGTATCCTAA) | 0.664
38 | GTGTCAACTTGGGTTCTAACCTGTTGCCT (site GTGTCAACTAG) | 0.343
39 | GTGTCAACTTGGGTTCTAACCTGTTGCCT (site GTGTCACCTAG) | 0.0106
40 | GTGTCAACTTGGGTTCTAACCTGTTGCCT (site GTGTCAGCTAG) | 0.0423
41 | GTGTCAACTTGGGTTCTAACCTGTTGCCT (site GTGTCATCTAG) | 0.0225
42 | GTGTCAGCTTGGGTTCTAACCTGTTGCCT (site GTGTCAACTAG) | 0.166
43 | GTGTCAGCTTGGGTTCTAACCTGTTGCCT (site GTGTCACCTAG) | 0.383
44 | GTGTCAGCTTGGGTTCTAACCTGTTGCCT (site GTGTCAGCTAG) | 1.56
45 | GTGTCAGCTTGGGTTCTAACCTGTTGCCT (site GTGTCATCTAG) | 0.02
46 | GTGTCATCTTGGGTTCTAACCTGTTGCCT (site GTGTCAACTAG) | 0.142
47 | GTGTCATCTTGGGTTCTAACCTGTTGCCT (site GTGTCACCTAG) | 0.0183
48 | GTGTCATCTTGGGTTCTAACCTGTTGCCT (site GTGTCAGCTAG) | 0.0185
49 | GTGTCATCTTGGGTTCTAACCTGTTGCCT (site GTGTCATCTAG) | 0.935
50 | GTGTCCTCTTGGGTTCTAACCTGTTGCGT (site CAAAAGGCTCG) | 0.039
51 | GTGTCCTCTTGGGTTCTAACCTGTTGCGT (site GTGTCCTCTAC) | 2.58
52 | GTGTCTCCTTGGGTTCTAACCTGTTGCCG (site GTCTCTCCTCG) | 0.0207

Row | Sequence | recombinant barcode read abundance (log10)
53 | GTGTCTCCTTGGGTTCTAACCTGTTGCCG (site GTGTCTCCTCG) | 0.0325
54 | GTGTGTACTTGGGTTCTAACCTGTTGCCA (site GAGTGAACTTG) | 0.0252
55 | GTGTGTACTTGGGTTCTAACCTGTTGCCA (site GTGTGTACTTG) | 0.488
56 | GTGTGTCCTTGGGTTCTAACCTGTTGCAT (site GTGTATCCTAT) | 0.381
57 | GTGTGTCCTTGGGTTCTAACCTGTTGCAT (site GTGTCTCCTAT) | 0.122
58 | GTGTGTCCTTGGGTTCTAACCTGTTGCAT (site GTGTGTCCTAT) | 1.7
59 | GTGTGTCCTTGGGTTCTAACCTGTTGCAT (site GTGTTTCCTAT) | 0.052
60 | GTGTTTCCTTGGGTTCTAACCTGTTGCAT (site GTGTATCCTAT) | 0.654
61 | GTGTTTCCTTGGGTTCTAACCTGTTGCAT (site GTGTCTCCTAT) | 0.081
62 | GTGTTTCCTTGGGTTCTAACCTGTTGCAT (site GTGTGTCCTAT) | 0.0468
63 | GTGTTTCCTTGGGTTCTAACCTGTTGCAT (site GTGTTTCCTAT) | 0.832
64 | GTTAACTCTTGGGTTCTAACCTGTTGCCT (site GTAAACTCTAG) | 0.2
65 | GTTAACTCTTGGGTTCTAACCTGTTGCCT (site GTCAACTCTAG) | 0.51
66 | GTTAACTCTTGGGTTCTAACCTGTTGCCT (site GTGAACTCTAG) | 0.34
67 | GTTAACTCTTGGGTTCTAACCTGTTGCCT (site GTTAACTCTAG) | 0.877
68 | GTTACACCTTGGGTTCTAACCTGTTGCCT (site GTTACACCTAG) | 0.848
69 | GTTACACCTTGGGTTCTAACCTGTTGCCT (site GTTTCACCTAG) | 0.187
70 | GTTACTACTTGGGTTCTAACCTGTTGCCG (site GTTACTACTCG) | 0.13
71 | GTTACTACTTGGGTTCTAACCTGTTGCCG (site TGGTACCCTTA) | 0.0233
72 | GTTCAGACTTGGGTTCTAACCTGTTGCTT (site CCAAGTCCTTG) | 0.284
73 | GTTCAGACTTGGGTTCTAACCTGTTGCTT (site GTTCAGACTAA) | 1.06
74 | GTTCATCCTTGGGTTCTAACCTGTTGCCT (site GATCATCCTAG) | 0.48
75 | GTTCATCCTTGGGTTCTAACCTGTTGCCT (site GTTCATCCTAG) | 1.02
76 | GTTCGTCCTTGGGTTCTAACCTGTTGCCA (site CCAATGTCTAC) | 0.104
77 | GTTCGTCCTTGGGTTCTAACCTGTTGCCA (site GTTCGTCCTTG) | 0.0879
